Literature values as cited in patent US20090011014A1, “Tablet Formulation for Sustained Drug-Release” (UNIVERSITE DE MONTREAL, priority 2004, published 2009).
Structures can show the parent of a compound that is named as a salt. Where two headings read alike, the source gives them in different places. Values belong to the molecule of their own block, whether it stands above or below them.

Legend:
[1] = 400-mg substituted amylose tablet containing 10% of drug; example 5 and FIG. 16 of U.S. Pat. No. 5,879,707

SMILES: O=C([O-])c1ccccc1O.[Na+] [Sodium salicylate]
Solubility, U.S.P. XXIII descriptive term: freely soluble
Time for release of 95% of the drug [1]: 6.5 h

Influence of pH on solubility (physiological conditions): not influenced by pH
SMILES: CC(=O)Nc1ccc(O)cc1 [Acetaminophen]

Solubility, U.S.P. XXIII descriptive term (hydrochloride): freely soluble
SMILES: CC(NC(C)(C)C)C(=O)c1cccc(Cl)c1 (stereo not shown) [bupropion hydrochloride]
